The target of this assay is USP7 (Homo sapiens, UniProt Q93009). The experiment in a line: biochemical.
Chain of USP7 (Q93009 whole entry): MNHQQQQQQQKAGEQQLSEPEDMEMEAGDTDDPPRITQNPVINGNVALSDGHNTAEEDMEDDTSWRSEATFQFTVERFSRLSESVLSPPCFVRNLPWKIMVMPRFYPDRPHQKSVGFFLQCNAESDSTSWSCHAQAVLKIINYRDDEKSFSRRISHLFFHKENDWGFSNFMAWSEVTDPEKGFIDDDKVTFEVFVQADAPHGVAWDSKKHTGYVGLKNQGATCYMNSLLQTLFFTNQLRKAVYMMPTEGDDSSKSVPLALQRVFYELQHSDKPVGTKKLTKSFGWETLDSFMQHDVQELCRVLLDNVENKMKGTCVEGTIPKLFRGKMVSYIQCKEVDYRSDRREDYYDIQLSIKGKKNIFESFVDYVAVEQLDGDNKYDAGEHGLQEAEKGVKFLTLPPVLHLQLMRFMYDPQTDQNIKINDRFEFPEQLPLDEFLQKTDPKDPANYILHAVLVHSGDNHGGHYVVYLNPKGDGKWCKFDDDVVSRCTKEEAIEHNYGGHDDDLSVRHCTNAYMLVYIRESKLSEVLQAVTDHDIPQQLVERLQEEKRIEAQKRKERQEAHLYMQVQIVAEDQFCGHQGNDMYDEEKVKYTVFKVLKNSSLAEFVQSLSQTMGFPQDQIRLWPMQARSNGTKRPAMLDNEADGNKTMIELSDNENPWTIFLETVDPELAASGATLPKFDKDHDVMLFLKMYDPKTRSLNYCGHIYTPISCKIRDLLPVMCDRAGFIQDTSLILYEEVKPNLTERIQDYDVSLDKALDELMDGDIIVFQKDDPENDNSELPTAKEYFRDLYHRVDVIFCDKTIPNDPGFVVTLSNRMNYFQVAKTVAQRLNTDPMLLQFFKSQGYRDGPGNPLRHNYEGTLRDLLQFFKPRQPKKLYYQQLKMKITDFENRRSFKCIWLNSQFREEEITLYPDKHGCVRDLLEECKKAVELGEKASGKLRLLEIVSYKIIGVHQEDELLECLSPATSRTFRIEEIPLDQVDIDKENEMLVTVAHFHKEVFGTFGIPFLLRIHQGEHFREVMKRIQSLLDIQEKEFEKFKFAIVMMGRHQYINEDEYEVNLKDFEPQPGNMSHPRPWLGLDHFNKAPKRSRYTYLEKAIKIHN
What is called IC50 is the concentration that inhibits the measured activity by half. Read a high IC50 as weaker potency in that assay. `Cc1ccnn(Cc2cc3nccc(-c4cc(Cl)cc5c4N(C4CNC4)CCC5)c3s2)c1=O` [Example 18, 2-[[7-[1-(azetidin-3-yl)-6-chloro-3,4-dihydro-2H-quinolin-8-yl]thieno[3,2-b]pyridin-2-yl]methyl]-4-methyl-pyridazin-3-one] yielded an IC50 of 10 to 100 nM.
To `O=C1CCC(=O)N1Cc1cc2nccc(-c3cc(Cl)cc4c3N(C3CNC5(CCC5)C3)CCO4)c2s1` (single isomer, unassigned) [Example 171a] belongs 101 to 1000 nM; to `CCn1c(N(C)C)cc(=O)n(Cc2cc3nccc(-c4cc(C#N)cc5c4N([C@@H]4CNC(C)(C)C4)CCC5)c3s2)c1=O` [Example 126, (S)-8-(2-((4-(dimethylamino)-3-ethyl-2,6-dioxo-2,3-dihydropyrimidin-1(6H)-yl)methyl)thieno[3,2-b]pyridin-7-yl)-1-(5,5-dimethylpyrrolidin-3-yl)-1,2,3,4-tetrahydroquinoline-6-carbonitrile], less than 10 nM.
To `O=C1CCC(=O)N1Cc1cc2nccc(-c3cc(Cl)cc4c3N(C3CNC3)C(=O)CO4)c2s1` [Example 53, 1-[[7-[4-(azetidin-3-yl)-7-chloro-3-oxo-1,4-benzoxazin-5-yl]thieno[3,2-b]pyridin-2-yl]methyl]pyrrolidine-2,5-dione] belongs 10 to 100 nM.
Then `CCN1CC(N2CCCc3cc(Cl)cc(-c4ccnc5cc(CN6C(=O)CCC6=O)sc45)c32)C1` [Example 4, 1-((7-(6-chloro-1-(1-ethylazetidin-3-yl)-1,2,3,4-tetrahydroquinolin-8-yl)thieno[3,2-b]pyridin-2-yl)methyl)pyrrolidine-2,5-dione], with 10 to 100 nM; and `O=c1ccn(CC(F)F)c(=O)n1Cc1cc2nccc(-c3cc(C(F)(F)F)cc4c3N([C@@H]3CCNC3)CCC4)c2s1` (single isomer, unassigned) [Example 80], with 10 to 100 nM.
On to `O=C1CCC(=O)N1Cc1cc2nccc(-c3cc(Cl)cc4c3N([C@@H]3CCCNCC3)CCC4)c2s1` (single isomer, unassigned) [Example 47b], for which the IC50 is less than 10 nM.
Then `O=C1CCC(=O)N1Cc1cc2nccc(-c3cc(Cl)cc4c3N(c3cn[nH]c3)C(=O)CC4)c2s1` [Example 228, 1-((7-(6-chloro-2-oxo-1-(1H-pyrazol-4-yl)-1,2,3,4-tetrahydroquinolin-8-yl)thieno[3,2-b]pyridin-2-yl)methyl)pyrrolidine-2,5-dione], with 101 to 1000 nM.
Turning to `O=C1CCC(=O)N1Cc1cc2nccc(-c3cc(Cl)cc4c3N([C@@H]3CN(C[C@@H](O)C(F)(F)F)C5(CCC5)C3)CCC4)c2s1` (single isomer, unassigned) [Example 143b], the IC50 fell in the range of 101 to 1000 nM.
`O=C1CCC(=O)N1Cc1cc2ncc(F)c(-c3cc(Cl)cc4c3N([C@H]3CCNC3)CCC4)c2s1` [Example 109, 1-((7-(6-chloro-1-((S)-pyrrolidin-3-yl)-1,2,3,4-tetrahydroquinolin-8-yl)-6-fluorothieno[3,2-b]pyridin-2-yl)methyl)pyrrolidine-2,5-dione]: the IC50 was less than 10 nM.
`O=C1CCC(=O)N1Cc1cc2ncnc(-c3cc(Cl)cc4c3N([C@H]3CNC5(CCC5)C3)C[C@@H]3C[C@H]43)c2s1` [Example 167c, 1-((4-((1aR,7bS)-6-chloro-3-((R)-5-azaspiro[3.4]octan-7-yl)-1a,2,3,7b-tetrahydro-1H-cyclopropa[c]quinolin-4-yl)thieno[3,2-d]pyrimidin-6-yl)methyl)pyrrolidine-2,5-dione] yielded an IC50 of 10 to 100 nM.
The compound `CC1(C)C2C(=O)N(Cc3cc4nccc(-c5cc(Cl)cc6c5N([C@@H]5CNC7(CCC7)C5)CCC6)c4s3)C(=O)C21` (stereo partly drawn) [Example 147, 3-((7-(6-chloro-1-((S)-5-azaspiro[3.4]octan-7-yl)-1,2,3,4-tetrahydroquinolin-8-yl)thieno[3,2-b]pyridin-2-yl)methyl)-6,6-dimethyl-3-azabicyclo[3.1.0]hexane-2,4-dione] showed an IC50 of 10 to 100 nM.
To `O=C1CCC(=O)N1C1(c2cc3nccc(-c4cc(Cl)cc5c4N([C@H]4CCNC4)CCC5)c3s2)CC1` [Example 110] belongs 101 to 1000 nM.
The compound `N#CC1(CN2CC(N3CCCc4cc(Cl)cc(-c5ccnc6cc(CN7C(=O)CCC7=O)sc56)c43)C2)CC1` [Example 12, 1-((3-(6-chloro-8-(2-((2,5-dioxopyrrolidin-1-yl)methyl)thieno[3,2-b]pyridin-7-yl)-3,4-dihydroquinolin-1(2H)-yl)azetidin-1-yl)methyl)cyclopropanecarbonitrile] gave an IC50 of 101 to 1000 nM.
Then `O=C1CCC(=O)N1Cc1cc2nccc(-c3cc(Cl)cc4c3N([C@H]3CCNC3)CCC4)c2s1` [Example 57, (S)-1-((7-(6-chloro-1-(pyrrolidin-3-yl)-1,2,3,4-tetrahydroquinolin-8-yl)thieno[3,2-b]pyridin-2-yl)methyl)pyrrolidine-2,5-dione], with less than 10 nM.
Then `O=C1CCC(=O)N1Cc1cc2nccc(-c3cc(Cl)cc4c3N([C@@H]3CN(CCc5nnn[nH]5)C5(CCC5)C3)CCC4)c2s1` [Example 144, (S)-1-((7-(1-(5-(2-(1H-tetrazol-5-yl)ethyl)-5-azaspiro[3.4]octan-7-yl)-6-chloro-1,2,3,4-tetrahydroquinolin-8-yl)thieno[3,2-b]pyridin-2-yl)methyl)pyrrolidine-2,5-dione], with 10 to 100 nM; and `O=C1C2CC2C(=O)N1Cc1cc2nccc(-c3cc(Cl)cc4c3N([C@@H]3CN[C@@H](CO)C3)CCC4)c2s1` (stereo partly drawn) [Example 185, 3-((7-(6-chloro-1-((3S,5R)-5-(hydroxymethyl)pyrrolidin-3-yl)-1,2,3,4-tetrahydroquinolin-8-yl)thieno[3,2-b]pyridin-2-yl)methyl)-3-azabicyclo[3.1.0]hexane-2,4-dione], with less than 10 nM.
To `COC(=O)[C@@]1(C)C[C@H](N2CCCc3cc(Cl)cc(-c4ccnc5cc(CN6C(=O)CCC6=O)sc45)c32)CN1` (single isomer, unassigned) [Example 203] belongs less than 10 nM.
Compound `O=c1ccn(CC(F)F)c(=O)n1Cc1cc2nccc(-c3cc(Cl)cc4c3N(C3CCNC3)C[C@H]3C[C@@H]43)c2s1` (stereo in doubt) [Example 115, 3-[[7-[(1aS,3R,7bR)-6-chloro-3-pyrrolidin-3-yl-1,1a,2,7b-tetrahydrocyclopropa[c]quinolin-4-yl]thieno[3,2-b]pyridin-2-yl]methyl]-1-(2,2-difluoroethyl)pyrimidine-2,4-dione] had an IC50 of less than 10 nM.
Then `Cn1cc(Cc2cc3nccc(-c4cc(Cl)cc5c4N([C@@H]4CCNC4)CCC5)c3s2)nn1` (single isomer, unassigned) [Example 98], with 101 to 1000 nM.
Turning to `Cc1cnn(Cc2cc3nccc(-c4cc(Cl)cc5c4N([C@@H]4CN[C@@H](CO)C4)CCO5)c3s2)c(=O)c1` [Example 216, 2-((7-(7-chloro-4-((3S,5R)-5-(hydroxymethyl)pyrrolidin-3-yl)-3,4-dihydro-2H-benzo[b][1,4]oxazin-5-yl)thieno[3,2-b]pyridin-2-yl)methyl)-5-methylpyridazin-3(2H)-one], the IC50 is less than 10 nM.
Regarding `CC(F)(F)CCn1ccc(=O)n(Cc2cc3nccc(-c4cc(Cl)cc5c4N([C@H]4CCNC4)CCC5)c3s2)c1=O` [Example 104, (S)-3-((7-(6-chloro-1-(pyrrolidin-3-yl)-1,2,3,4-tetrahydroquinolin-8-yl)thieno[3,2-b]pyridin-2-yl)methyl)-1-(3,3-difluorobutyl)pyrimidine-2,4(1H,3H)-dione], the IC50 was less than 10 nM.

(Values after US20240158412A1 (Faxian Therapeutics, LLC, priority 2021, published 2024).)
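Note: fluorescence intensity readout of USP7 enzymatic activity, reaction incubated 90 min at room temperature.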
